Experimental data reported in publication PMC5128747, “Biscogniauxone, a New Isopyrrolonaphthoquinone Compound from the Fungus Biscogniauxia mediterranea Isolated from Deep-Sea Sediments” (Marine Drugs, 2016).
Values after ≈ are worked out from the molar mass of the structure shown. Values joined by “and” are separate entries in the source; they are usually repeats but may differ in a detail not shown here. Identical values can stand only once. Like-named read-outs stand apart in the source and are kept apart here. Where a SMILES comes first, the peptide text is derived from it.

Legend:
[1] = biological target: acetylcholinesterase (AchE) (Homo sapiens, UniProt P22303); test: Inhibition of acetylcholinesterase (AchE); type: biochemical
Method: (§1) The phytopathogenic fungus Septoria tritici and the dermatophytic fungus Trichophyton rubrum as well as the cytotoxic effect on the human hepatocellular liver carcinoma cell line HepG2 were tested according to Jansen et al.. Inhibition of the enzymes glycogen synthase kinase (GSK-3β), acetylcholinesterase (AchE), phosphodiesterase (PDE-4B2), and protein tyrosine phosphatase (PTP1B) was determined according to Baki et al., Ohlendorf et al., Schulz et al., and Silber et al., respectively. The concentration of the compounds used in the initial bioassays was 100 μM (antibiotic tests), 50 μM (cytotoxic tests), and 10 μM (enzymatic tests).

Trichophyton rubrum = test: Antifungal growth inhibition, Trichophyton rubrum; type: cell-based; settings: in the same concentration range (IC50 in the range of 100 μM)
Method: as §1, with “The antimicrobial activities of compounds 1 and 2 against the bacteria Bacillus subtilis as well as the human pathogenic yeast Candida albicans (DSM 1386) were determined according to Ohlendorf et al.. The bioassays with the clinically relevant bacterial strains Staphylococcus epidermidis (DSM 20044), methicillin-resistant Staphylococcus aureus (MRSA) (DSM 18827), and the causative agent of acne, Propionibacterium acnes (DSM 1897^T), were performed as described by Silber et al.. The phytopathogenic” for “The phytopathogenic”, “(enzymatic tests). […]” for “(enzymatic tests).”

Septoria tritici = test: Antifungal growth inhibition, Septoria tritici; type: cell-based; settings: in the same concentration range (IC50 in the range of 100 μM)
Method: as §1, with “The antimicrobial activities of compounds 1 and 2 against the bacteria Bacillus subtilis as well as the human pathogenic yeast Candida albicans (DSM 1386) were determined according to Ohlendorf et al.. The bioassays with the clinically relevant bacterial strains Staphylococcus epidermidis (DSM 20044), methicillin-resistant Staphylococcus aureus (MRSA) (DSM 18827), and the causative agent of acne, Propionibacterium acnes (DSM 1897^T), were performed as described by Silber et al.. The phytopathogenic” for “The phytopathogenic”, “(enzymatic tests). […]” for “(enzymatic tests).”

[2] = biological target: T1, glycogen synthase kinase (GSK-3β) (Homo sapiens, UniProt P49841); test: Inhibition of glycogen synthase kinase (GSK-3β); type: biochemical; settings: concentrations 0.1 μM to 50 μM analyzed twice in duplicates
Method: as §1

[3] = tested on: Staphylococcus epidermidis (DSM 20044); test: Antibacterial growth inhibition, Staphylococcus epidermidis; type: cell-based; settings: DSM20044, very weak inhibition, in the range of
Method: as §1, with “The antimicrobial activities of compounds 1 and 2 against the bacteria Bacillus subtilis as well as the human pathogenic yeast Candida albicans (DSM 1386) were determined according to Ohlendorf et al.. The bioassays with the clinically relevant bacterial strains Staphylococcus epidermidis (DSM 20044), methicillin-resistant Staphylococcus aureus (MRSA) (DSM 18827), and the causative agent of acne, Propionibacterium acnes (DSM 1897^T), were performed as described by Silber et al.. The phytopathogenic” for “The phytopathogenic”, “(enzymatic tests). […]” for “(enzymatic tests).”

[4] = tested on: methicillin-resistant Staphylococcus aureus (MRSA) (DSM 18827); test: Antibacterial growth inhibition, MRSA; type: cell-based; settings: very weak inhibition, in the range of
[5] = biological target: T1, glycogen synthase kinase (GSK-3β); set-up: method as in PMID 24045329; settings: read-out: IC50, inhibition of GSK-3β; cited from earlier work

T1 sequence (P49841 whole entry): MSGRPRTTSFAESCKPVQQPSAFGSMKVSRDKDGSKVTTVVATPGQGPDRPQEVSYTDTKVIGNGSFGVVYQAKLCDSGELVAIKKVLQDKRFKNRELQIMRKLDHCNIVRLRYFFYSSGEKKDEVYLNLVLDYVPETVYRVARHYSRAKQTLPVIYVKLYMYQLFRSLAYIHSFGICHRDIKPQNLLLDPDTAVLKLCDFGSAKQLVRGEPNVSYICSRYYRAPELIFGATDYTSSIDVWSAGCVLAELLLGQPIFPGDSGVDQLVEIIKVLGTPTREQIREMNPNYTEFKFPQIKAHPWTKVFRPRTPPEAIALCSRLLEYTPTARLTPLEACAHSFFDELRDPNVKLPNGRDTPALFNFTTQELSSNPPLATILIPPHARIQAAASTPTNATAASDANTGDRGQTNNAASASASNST
Sequence of acetylcholinesterase (AchE) (P22303 32-614): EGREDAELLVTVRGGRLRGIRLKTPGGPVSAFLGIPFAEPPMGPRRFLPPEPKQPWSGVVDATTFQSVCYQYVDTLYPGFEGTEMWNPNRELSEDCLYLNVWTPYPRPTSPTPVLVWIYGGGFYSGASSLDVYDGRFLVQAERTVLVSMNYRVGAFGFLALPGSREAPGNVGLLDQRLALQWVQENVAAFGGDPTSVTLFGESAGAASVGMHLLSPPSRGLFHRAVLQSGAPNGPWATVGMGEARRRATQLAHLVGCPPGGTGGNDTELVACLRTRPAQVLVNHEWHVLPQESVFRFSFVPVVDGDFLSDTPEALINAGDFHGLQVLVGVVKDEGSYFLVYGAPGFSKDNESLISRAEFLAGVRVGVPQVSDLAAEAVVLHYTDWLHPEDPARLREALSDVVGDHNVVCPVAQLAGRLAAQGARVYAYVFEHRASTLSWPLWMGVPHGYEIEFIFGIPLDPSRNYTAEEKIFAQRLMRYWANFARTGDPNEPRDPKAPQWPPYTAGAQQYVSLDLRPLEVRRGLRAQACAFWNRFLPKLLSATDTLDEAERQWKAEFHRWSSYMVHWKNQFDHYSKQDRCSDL

Compound: CC(C)C[C@@H]1NC(=O)[C@H](CC(C)C)NC(=O)[C@H](C(C)C)NC(=O)[C@H](CC(C)C)NC(=O)[C@H](Cc2ccccc2)NC1=O [Compound 3, cyclo-(L-Phe-L-Leu-L-Val-L-Leu-L-Leu)] (cyclo(FLVLL))
- minimal inhibition concentration (MIC), inhibitory effect on AchE [1]: 5.87 µM (≈ 3.44 µg/mL)

Compound: COc1cc(O)c2c(c1C)C[C@H](C)OC2=O [Compound 2, 6-methoxy-5-methyl mellein]
- inhibition of Trichophyton rubrum (Trichophyton rubrum): weakly inhibited
- inhibition of Septoria tritici (Septoria tritici): weakly inhibited

Compound: O=C1c2c[nH]cc2C(=O)c2c(O)cc(O)cc21 [Compound 1, biscogniauxone]
- IC50 [2]: 8.04 µM and 8 µM
- IC50 [3]: ~100 µM
- IC50 [4]: ~100 µM

Compound: bhimamycin H
- IC50 [5]: 18 µM
